Reference: patent US20250230193A1, “CYCLIC COMPOUND HAVING SELECTIVE KRAS INHIBITORY EFFECT ON HRAS AND NRAS” (CHUGAI SEIYAKU KABUSHIKI KAISHA, priority 2022, published 2025)
Where a SMILES comes first, the peptide text is derived from it. Bridges are numbered along the chain shown (N, C = ends). [ ]: non-standard residue; d: D form. hPhe(3,5-F2-4-CF3) = N[C@@H](CCc1cc(F)c(C(F)(F)F)c(F)c1)C(=O)O; NPrPhe(4-CF3) = CCCN[C@@H](Cc1ccc(C(F)(F)F)cc1)C(=O)O; NMeGly(cPent) = CN[C@H](C(=O)O)C1CCCC1; αMeF = C[C@](N)(Cc1ccccc1)C(=O)O; NMeD = CN[C@@H](CC(=O)O)C(=O)O; NMeL = CN[C@@H](CC(C)C)C(=O)O; Sar = CNCC(=O)O

Tests used:
[1] = target: GDP-bound NRAS wild-type protein (Homo sapiens, UniProt P01111); test: Binding to NRAS by surface plasmon resonance (SPR), Single Cycle Kinetics
Chain of GDP-bound NRAS wild-type protein (P01111 whole entry): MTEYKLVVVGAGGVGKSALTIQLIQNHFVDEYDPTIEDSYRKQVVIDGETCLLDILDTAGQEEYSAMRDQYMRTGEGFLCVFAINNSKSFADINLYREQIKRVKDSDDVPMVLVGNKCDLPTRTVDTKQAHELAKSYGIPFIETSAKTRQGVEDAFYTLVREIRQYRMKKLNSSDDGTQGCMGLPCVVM

[2] = target: GDP-bound HRAS wild-type protein (Homo sapiens, UniProt P01112); test: Binding to HRAS by surface plasmon resonance (SPR), Single Cycle Kinetics
Chain of GDP-bound HRAS wild-type protein (P01112 whole entry): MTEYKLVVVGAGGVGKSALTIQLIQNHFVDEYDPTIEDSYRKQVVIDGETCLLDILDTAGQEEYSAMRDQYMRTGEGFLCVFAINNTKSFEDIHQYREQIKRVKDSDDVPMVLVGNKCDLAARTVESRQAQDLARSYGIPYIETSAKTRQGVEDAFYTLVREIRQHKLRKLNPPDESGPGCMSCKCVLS

[3] = GDP-bound NRAS wild-type vs GDP-bound KRAS wild-type, SPR
[4] = GDP-bound HRAS wild-type vs GDP-bound KRAS wild-type, SPR

`CCO[C@@H]1C[C@H]2C(=O)NC3(CC(C)(C)C3)C(=O)N(C)[C@@H](C3CCCC3)C(=O)N(C)[C@H](C(=O)N(C)CC)CC(=O)N(C)[C@@H](CC)C(=O)N[C@@H]([C@@H](C)CC)C(=O)N(C)CC(=O)N(C)[C@H]3C/C=C\CCN(C3=O)[C@@H](Cc3ccc(C)cc3)C(=O)N(C)CC(=O)N[C@@H](CCc3cc(F)c(C(F)(F)F)c(F)c3)C(=O)N2C1` [PP1886] was tested, and the “NRAS/KRAS (ratio of KD value for NRAS to KD value for KRAS)” value [1, 3] was “A (a compound having 10 or more and less than 20 is denoted as A)” and the “HRAS/KRAS (ratio of KD value for HRAS to KD value for KRAS)” value [2, 4] was “B (a compound having 3 or more and less than 10 is denoted as B)”.
`CC[C@H](C)[C@@H]1NC(=O)[C@H](C2CCC2)N(C)C(=O)C[C@@H](C(=O)N(C)CC)N(C)C(=O)[C@H](C2CCCC2)N(C)C(=O)C2(CC(C)(C)C2)NC(=O)[C@@H]2C[C@H](C)CN2C(=O)[C@H](CCc2cc(F)c(C(F)(F)F)c(F)c2)NC(=O)CN(C)C(=O)[C@H](Cc2ccc(C(F)(F)F)cc2)N2CC/C=C\C[C@@H](C2=O)N(C)C(=O)CN(C)C1=O` [PP1984] was tested, and the “NRAS/KRAS (ratio of KD value for NRAS to KD value for KRAS)” value [1, 3] was “A (a compound having 10 or more and less than 20 is denoted as A)” and the “HRAS/KRAS (ratio of KD value for HRAS to KD value for KRAS)” value [2, 4] was “A (a compound having 10 or more and less than 20 is denoted as A)”.
`CCO[C@@H]1C[C@H]2C(=O)NC3(CCC3)C(=O)N(C)[C@@H](C3CCCC3)C(=O)N(CC)[C@H](C(=O)N3CCOCC3)CC(=O)N(C)[C@@H](CC(C)C)C(=O)N[C@@H]([C@@H](C)CC)C(=O)N(C)CC(=O)N(C)[C@H]3CCCCN(C3=O)[C@@H](Cc3ccc(C(F)(F)F)cc3)C(=O)N(C)CC(=O)N[C@@H](CCc3cc(F)c(C(F)(F)F)c(F)c3)C(=O)N2C1` [PP0648] was tested, and the “NRAS/KRAS (ratio of KD value with respect to GDP-bound NRAS wild-type protein to KD value with respect to KRAS)” value ([1]; SPR) was “B (a compound having 3 or more and less than 10 is denoted as B)” and the “HRAS/KRAS (ratio of KD value with respect to GDP-bound HRAS wild-type protein to KD value with respect to KRAS)” value ([2]; SPR) was “B (a compound having 3 or more and less than 10 is denoted as B)”.
For `CCCN1C(=O)CN(C)C(=O)CN(C)C(=O)[C@H]([C@@H](C)CC)NC(=O)[C@H](CC(C)C)N(C)C(=O)C[C@@H](C(=O)N(C)C)N(C)C(=O)[C@H](C2CCCC2)N(C)C(=O)[C@](C)(Cc2ccccc2)NC(=O)[C@@H]2CCCN2C(=O)[C@H](CCc2cc(F)c(C(F)(F)F)c(F)c2)NC(=O)CN(C)C(=O)[C@@H]1Cc1ccc(C(F)(F)F)cc1` [PP0740] ([NMeL]I[Sar][Sar][NPrPhe(4-CF3)][Sar][hPhe(3,5-F2-4-CF3)]P[αMeF][NMeGly(cPent)][NMeD]-NMe2; lactam N-11), the “NRAS/KRAS (ratio of KD value with respect to GDP-bound NRAS wild-type protein to KD value with respect to KRAS)” value ([1]; SPR) was “B (a compound having 3 or more and less than 10 is denoted as B)” and the “HRAS/KRAS (ratio of KD value with respect to GDP-bound HRAS wild-type protein to KD value with respect to KRAS)” value ([2]; SPR) was “C (A compound having a KD ratio of 0.1 or more and less than 3 is denoted as C)”.
`CCO[C@@H]1C[C@H]2C(=O)NC3(CC(C)(C)C3)C(=O)N(C)[C@@H](C(CC)CC)C(=O)N(C)[C@H](C(=O)N(C)C)CC(=O)N(C)[C@@H](COC)C(=O)N[C@@H]([C@@H](C)CC)C(=O)N(C)CC(=O)N(C)[C@H]3C/C=C\CCN(C3=O)[C@@H](Cc3ccc(C(F)(F)F)cc3)C(=O)N(C)CC(=O)N[C@@H](CCc3cc(F)c(C(F)(F)F)c(F)c3)C(=O)N2C1` [PP2121] was tested, and the “NRAS/KRAS (ratio of KD value with respect to NRAS to KD value with respect to KRAS)” value ([1]; SPR, GDP-bound NRAS wild-type vs GDP-bound KRAS wild-type) was “AA (a compound having 20 or more is denoted as AA)” and the “HRAS/KRAS (ratio of KD value with respect to HRAS to KD value with respect to KRAS)” value ([2]; SPR, GDP-bound HRAS wild-type vs GDP-bound KRAS wild-type) was “A (a compound having 10 or more and less than 20 is denoted as A)”.
`CCO[C@@H]1C[C@H]2C(=O)NC3(CC(C)(C)C3)C(=O)N(C)[C@@H](C3CCCC3)C(=O)N(C)[C@H](C(=O)N3CCCC3)CC(=O)N(C)[C@@H](CC)C(=O)N[C@@H]([C@@H](C)CC)C(=O)N(C)CC(=O)N(C)[C@H]3C/C=C\CCN(C3=O)[C@@H](Cc3ccc(C(F)(F)F)cc3)C(=O)N(C)CC(=O)N[C@@H](CCc3cc(F)c(C(F)(F)F)c(F)c3)C(=O)N2C1` [PP1944] was tested, and the “NRAS/KRAS (ratio of KD value for NRAS to KD value for KRAS)” value [1, 3] was “A (a compound having 10 or more and less than 20 is denoted as A)” and the “HRAS/KRAS (ratio of KD value for HRAS to KD value for KRAS)” value [2, 4] was “A (a compound having 10 or more and less than 20 is denoted as A)”.
In the case of `CCO[C@@H]1C[C@H]2C(=O)NC3(CCC3)C(=O)N(C)[C@@H](C(CC)CC)C(=O)N(C)[C@H](C(=O)N3CCCC3)CC(=O)N(C)[C@H]3CCC/C=C/c4ccc(cc4)C[C@@H](C(=O)N(C)CC(=O)N[C@@H](CCc4cc(F)c(C(F)(F)F)c(F)c4)C(=O)N2C1)N1CC/C=C\C[C@@H](C1=O)N(C)C(=O)CN(C1CC1)C(=O)[C@H]([C@@H](C)CC)NC3=O` [PP2957], the “NRAS/KRAS (ratio of KD value with respect to GDP-bound NRAS wild-type protein to KD value with respect to KRAS)” value ([1]; class symbols) was “AA (a compound having 20 or more is denoted as AA)” and the “HRAS/KRAS (ratio of KD value with respect to GDP-bound HRAS wild-type protein to KD value with respect to KRAS)” value ([2]; class symbols) was “A (a compound having 10 or more and less than 20 is denoted as A)”.
`C#CC[C@H]1C(=O)N[C@@H]([C@@H](C)CC)C(=O)N(C)CC(=O)N(C)[C@H]2C/C=C\CCN(C2=O)[C@@H](Cc2ccc(C(F)(F)F)cc2)C(=O)N(C)CC(=O)N[C@@H](CCc2ccc(C(F)(F)F)c(OC)c2)C(=O)N2CC[C@H]2C(=O)NC2(CC(C)(C)C2)C(=O)N(C)[C@@H](C2CCCC2)C(=O)N(C)[C@H](C(=O)N(C)C)CC(=O)N1C` [PP2909] was tested, and the “NRAS/KRAS (ratio of KD value with respect to GDP-bound NRAS wild-type protein to KD value with respect to KRAS)” value ([1]; class symbols) was “B (a compound having 3 or more and less than 10 is denoted as B)” and the “HRAS/KRAS (ratio of KD value with respect to GDP-bound HRAS wild-type protein to KD value with respect to KRAS)” value ([2]; class symbols) was “B (a compound having 3 or more and less than 10 is denoted as B)”.
